Test results reported in patent publication US4086350A, “Pharmaceutical compositions and method of producing anti-psychotic activity without extrapyramidal symptoms” (priority 1975, dated 1978).
Read-outs that look alike come from different tables or passages of the source.

What was measured:
[1] = system: striatal dopamine receptors; assay: Antagonism of amphetamine-induced rotation in rats with unilateral substantia nigra lesions (Ungerstedt); type: in vivo, rat; conditions: i.p.
From the text: There is evidence that antipsychotic drugs cause EPS by interfering with neurotransmission in a nigrostriatal dopaminergic pathway. It is thought that they block dopamine receptors in the neostriatum. Therefore, the ability of a drug to block striatal dopamine receptors is a measure of its EPS liability.
To assess the potency of drugs in blocking striatal dopamine receptors a procedure was used which was developed by Ungerstedt [Ungerstedt and Arbuthnott, Brain Res. 24 485 (1970); Ungerstedt, Acta physiol. scand., Suppl. 367, 49 (1971)] using rats with unilateral lesions of the substantia nigra induced by injection of 6-hydroxydopamine. This treatment causes degeneration of the nigrostriatal dopaminergic pathway accompanied by a marked decrease in the dopamine content of the neostriatum on the side of the lesion. Animals with this lesion develop postural and motor asymmetries which are altered by drugs which affect dopaminergic activity. Amphetamine, which releases dopmine and norepinephrine from catecholaminergic neurons, causes these rats to rotate unidirectionally toward the side of the lesion. Since there is a much larger amount of dopamine to be released by amphetamine from the intact nigrostriatal neurons on the non-lesioned side than from those remaining on the lesioned side, the rotational behavior is apparently due to the preponderance of activation of striatal dopamine receptors on the intact side. The ability of a drug to antagonize the rotational behavior is therefore a measure of its ability to block striatal dopamine receptors and is indicative of its potential to produce EPS.
(§1) To predict the potential ability of a drug to cause EPS, the ratio of its ED50 (i.p.) for antagonism of amphetamine-induced rotation to its ED50 (i.p.) for blockade of shock avoidance acquisition in the rat, a procedure for assessing antipsychotic activity, (R/A ratio) is calculated.

[2] = system: amphetamine-induced rotation vs. avoidance acquisition; assay: R/A ratio: ED50 amphetamine-induced rotation / ED50 avoidance acquisition; type: in vivo, rat
Method: as §1

[3] = system: shock avoidance acquisition in the rat; assay: Antagonism of shock avoidance acquisition in the rat (antipsychotic activity); type: in vivo; conditions: ip, read-out: Antagonism of Avoidance Acquisition, Rats, ED50 (A)
Method: as §1

[4] = clinically established antipsychotics (Table I)
[5] = ratio of i.p. ED50 values in rats, clinically established antipsychotics (Table I)
[6] = piperidylidene derivatives (Table II)
[7] = ratio of i.p. ED50 values in rats, piperidylidene derivatives (Table II)
[8] = rats, i.p., piperidylidene derivatives (Table II)

Row | Compound | Antagonism of Amphetamine-induced Rotation, Rats, ED50 (R) [1, 4] | R/A ratio [2, 5] | ED50 [3] | Antagonism of Amphetamine-induced Rotation, Rats, ED50 (R) [1, 6] | R/A ratio [2, 7] | ED50 [3, 8] | R/A ratio ([2]; rat, in vivo, ip)
1 | CN(C)CCCN1c2ccccc2Sc2ccc(Cl)cc21 [Chlorpromazine, reference compound] | 2.0 mg/kg | 1.3 | – | – | – | – | –
2 | O=C(CCCN1CCC(O)(c2ccc(Cl)cc2)CC1)c1ccc(F)cc1 [Haloperidol, reference compound] | 0.05 mg/kg | 0.31 | – | – | – | – | –
3 | CN1CCC(=C2c3ccccc3Sc3ccc(Cl)cc32)CC1 [I, 4-(2-chloro-9-thioxanthenylidene)-1-methylpiperidine] | – | – | 0.7 mg/kg | 14.2 mg/kg | 20.3 | – | –
4 | CSc1ccc2c(c1)C(=C1CCN(C)CC1)c1ccccc1S2 [II, 1-methyl-4-(2-methylthio-9-thioxanthenylidene)-piperidine] | – | – | 0.2 mg/kg | 3.7 mg/kg | 18.5 | – | –
5 | CN1CCC(=C2c3ccccc3Sc3cc(Cl)ccc32)CC1 [III, 4-(3-chloro-9-thioxanthenylidene)-1-methylpiperidine] | – | – | – | 30.8 mg/kg | 5.8 | 5.3 mg/kg | –
6 | CN1CCC(=C2c3ccccc3Oc3ccc(Cl)cc32)CC1 [IV, 4-(2-chloro-9-xanthenylidene)-1-methylpiperidine] | – | – | – | 2.8 mg/kg | 12.2 | 0.23 mg/kg | –
7 | OCCN1CCC(=C2c3ccccc3Sc3ccc(Cl)cc32)CC1 [IX, 4-(2-chloro-9-thioxanthenylidene)-1-(β-hydroxyethyl)piperidine] | – | – | – | 1.22 mg/kg | 4.7 | 0.26 mg/kg | –
8 | O=c1[nH]c2ccccc2n1C1CCN(CCCC(c2ccc(F)cc2)c2ccc(F)cc2)CC1 [Pimozide, reference compound] | 0.08 mg/kg | 0.30 | – | – | – | – | –
9 | CN1CCN(CCCN2c3ccccc3Sc3ccc(C(F)(F)F)cc32)CC1 [Trifluoperazine, reference compound] | – | 0.46 | – | – | – | – | –
10 | CSc1ccc2c(c1)C(=C1CCN(C)CC1)c1ccccc1O2 [V, 1-methyl-4-(2-methylthio-9-xanthenylidene)piperidine] | – | – | – | 1.8 mg/kg | 3.0 | 0.6 mg/kg | –
11 | CN1CCC(=C2c3ccccc3Oc3ccc(C(F)(F)F)cc32)CC1 [VI, 1-methyl-4-(2-trifluoromethyl-9-xanthenylidene)-piperidine] | – | – | – | 0.26 mg/kg | 3.7 | 0.07 mg/kg | –
12 | CN1CCC(=C2c3ccccc3COc3ccc(Cl)cc32)CC1 [VII, 4-(2-chloro-11(6H)-dibenz[b,e]oxepinylidene)-1-methylpiperidine] | – | – | – | 9.4 mg/kg | 5.5 | 1.7 mg/kg | –
13 | CN1CCC(=C2c3ccccc3Oc3ccc(F)cc32)CC1 [VIII, 4-(2-fluoro-9-xanthenylidene)-1-methylpiperidine] | – | – | – | 5.6 mg/kg | 7.9 | 0.71 mg/kg | –
14 | CN1CCC(=C2c3ccccc3Oc3ccc(Br)cc32)CC1 [X, 4-(2-bromo-9-xanthenylidene)-1-methylpiperidine] | – | – | – | 1.6 mg/kg | 5.3 | 0.3 mg/kg | –
15 | CN1CCC(=C2c3ccccc3Oc3ccc(C#N)cc32)CC1 [XI, 4-(2-cyano-9-xanthenylidene)-1-methylpiperidine] | – | – | – | 0.29 mg/kg | 3.2 | 0.09 mg/kg | –
16 | CN1CCC(=C2c3ccccc3Sc3ccc(F)cc32)CC1 [XII, 4-(2-fluoro-9-thioxanthenylidene)-1-methylpiperidine] | – | – | – | 5.5 mg/kg | 3.1 | 1.8 mg/kg | –
17 | CN1CCC(=C2c3ccccc3Sc3cc(F)ccc32)CC1 [XIII, 4-(3-fluoro-9-thioxanthenylidene)-1-methylpiperidine] | – | – | – | 17.7 mg/kg | 5.8 | 3 mg/kg | –
18 | CN1CCC(=C2c3ccccc3Sc3ccc(Br)cc32)CC1 [XIV, 4-(2-bromo-9-thioxanthenylidene)-1-methylpiperidine] | – | – | – | 2.7 mg/kg | 9.0 | 0.3 mg/kg | –

Row | Compound | Antagonism of Amphetamine-induced Rotation, Rats, ED50 (R) [1, 4] | R/A ratio [2, 5] | ED50 [3] | Antagonism of Amphetamine-induced Rotation, Rats, ED50 (R) [1, 6] | R/A ratio [2, 7] | ED50 [3, 8] | R/A ratio ([2]; rat, in vivo, ip)
19 | Clc1ccc2c(c1)C(=C1CCN(CC3CCC3)CC1)c1ccccc1S2 [XIX, 4-(2-chloro-9-thioxanthenylidene)-1-cyclobutylmethylpiperidine] | – | – | – | 1.9 mg/kg | – | 0.5 mg/kg | 3.8
20 | CN1CCC(=C2c3ccc(Cl)cc3Sc3ccc(F)cc32)CC1 [XV, 4-(6-chloro-2-fluoro-9-thioxanthenylidene)-1-methylpiperidine] | – | – | – | 8.7 mg/kg | 14.5 | 0.6 mg/kg | –
21 | CN1CCC(=C2c3ccc(Cl)cc3Oc3ccc(F)cc32)CC1 [XVI, 4-(6-chloro-2-fluoro-9-xanthenylidene)-1-methylpiperidine] | – | – | – | 1.12 mg/kg | 7.5 | 0.15 mg/kg | –
22 | CCN1CCC(=C2c3ccccc3Sc3ccc(Cl)cc32)CC1 [XVII, 4-(2-chloro-9-thioxanthenylidene)-1-ethylpiperidine] | – | – | – | 5.0 mg/kg | 10.0 | 0.5 mg/kg | –
23 | CCCCN1CCC(=C2c3ccccc3Sc3ccc(Cl)cc32)CC1 [XVIII, 4-(2-chloro-9-thioxanthenylidene)-1-n-butylpiperidine] | – | – | – | 3.1 mg/kg | 3.3 | 0.94 mg/kg | –
24 | Clc1ccc2c(c1)C(=C1CCNCC1)c1ccccc1O2 [XX, 4-(2-chloro-9-xanthenylidene)-piperidine] | – | – | – | 8.1 mg/kg | 4.8 | 1.7 mg/kg | –
25 | CCN1CCC(=C2c3ccccc3Oc3ccc(Cl)cc32)CC1 [XXI, 4-(2-chloro-9-xanthenylidene)-1-ethylpiperidine] | – | – | – | 1.8 mg/kg | 3.6 | 0.5 mg/kg | –
26 | OCCN1CCC(=C2c3ccccc3Oc3ccc(Cl)cc32)CC1 [XXII, 4-(2-chloro-9-xanthenylidene)-1-(β-hydroxyethyl)-piperidine] | – | – | – | 1.3 mg/kg | 6.5 | 0.2 mg/kg | –
27 | CCCN1CCC(=C2c3ccccc3Oc3ccc(Cl)cc32)CC1 [XXIII, 4-(2-chloro-9-xanthenylidene)-1-n-propylpiperidine] | – | – | – | 2.4 mg/kg | 4.0 | 0.6 mg/kg | –
28 | Clc1ccc2c(c1)C(=C1CCN(CC3CCC3)CC1)c1ccccc1O2 [XXIV, 4-(2-chloro-9-xanthenylidene)-1-cyclobutylmethylpiperidine] | – | – | – | 1.6 mg/kg | 3.2 | 0.5 mg/kg | –
29 | CN1CCC(=C2c3ccc(F)cc3Sc3ccc(F)cc32)CC1 [XXIX, 4-(2,6-difluoro-9-thioxanthenylidene)-1-methylpiperidine] | – | – | – | 2.4 mg/kg | 4.8 | 0.5 mg/kg | –
30 | Brc1ccc2c(c1)C(=C1CCNCC1)c1ccccc1O2 [XXV, 4-(2-bromo-9-xanthenylidene)-piperidine] | – | – | – | 4.0 mg/kg | 6.7 | 0.6 mg/kg | –
31 | OCCN1CCC(=C2c3ccccc3Oc3ccc(Br)cc32)CC1 [XXVI, 4-(2-bromo-9-xanthenylidene)-1-(β-hydroxyethyl)-piperidine] | – | – | – | 2.1 mg/kg | 3.5 | 0.6 mg/kg | –
32 | CN1CCC(=C2c3cc(Cl)ccc3COc3ccccc32)CC1 [XXVII, 4-(9-chloro-11(6H)-dibenz[b,e]oxepinylidene)-1-methylpiperidine] | – | – | – | > 24 mg/kg | > 15 | 1.6 mg/kg | –
33 | CN1CCC(=C2c3ccccc3Sc3ccc(C#N)cc32)CC1 [XXVIII, 4-(2-cyano-9-thioxanthenylidene)-1-methylpiperidine] | – | – | – | 0.67 mg/kg | 4.0 | 0.16 mg/kg | –
34 | OCCCN1CCC(=C2c3ccccc3Oc3ccc(Cl)cc32)CC1 [XXX, 4-(2-chloro-9-xanthenylidene)-1-(3-hydroxypropyl)-piperidine] | – | – | – | 0.78 mg/kg | 3.9 | 0.2 mg/kg | –
35 | CCCCN1CCC(=C2c3ccccc3Oc3ccc(C(F)(F)F)cc32)CC1 [XXXI, 4-(2-trifluoromethyl-9-xanthenylidene)-1-n-butylpiperidine] | – | – | – | 1 mg/kg | 10 | 0.1 mg/kg | –
